Target: bovine cardiac myosin (Bos taurus, UniProt Q9BE39)
Assay: Myosin activation assay (PK/LDH-coupled ATPase, bovine cardiac myofibrils)
Format: biochemical
Details: AC20 = concentration at which total response is increased by twenty percent
In short: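 Skinned bovine cardiac myofibrils (1 mg/mL) in PIPES/MgCl2 buffer pH 6.8 at free Ca2+ giving ~50% (pCa ~6) or <5% (pCa 10) activation, with 50 μM ATP and 3.3% DMSO. ATPase rate from NADH absorbance at 340 nm (PK/LDH coupling) over 15 min at ambient temperature. AC20/AC50 from a four-parameter fit of DMSO-normalised rates.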

bovine cardiac myosin, sequence (Q9BE39 whole entry): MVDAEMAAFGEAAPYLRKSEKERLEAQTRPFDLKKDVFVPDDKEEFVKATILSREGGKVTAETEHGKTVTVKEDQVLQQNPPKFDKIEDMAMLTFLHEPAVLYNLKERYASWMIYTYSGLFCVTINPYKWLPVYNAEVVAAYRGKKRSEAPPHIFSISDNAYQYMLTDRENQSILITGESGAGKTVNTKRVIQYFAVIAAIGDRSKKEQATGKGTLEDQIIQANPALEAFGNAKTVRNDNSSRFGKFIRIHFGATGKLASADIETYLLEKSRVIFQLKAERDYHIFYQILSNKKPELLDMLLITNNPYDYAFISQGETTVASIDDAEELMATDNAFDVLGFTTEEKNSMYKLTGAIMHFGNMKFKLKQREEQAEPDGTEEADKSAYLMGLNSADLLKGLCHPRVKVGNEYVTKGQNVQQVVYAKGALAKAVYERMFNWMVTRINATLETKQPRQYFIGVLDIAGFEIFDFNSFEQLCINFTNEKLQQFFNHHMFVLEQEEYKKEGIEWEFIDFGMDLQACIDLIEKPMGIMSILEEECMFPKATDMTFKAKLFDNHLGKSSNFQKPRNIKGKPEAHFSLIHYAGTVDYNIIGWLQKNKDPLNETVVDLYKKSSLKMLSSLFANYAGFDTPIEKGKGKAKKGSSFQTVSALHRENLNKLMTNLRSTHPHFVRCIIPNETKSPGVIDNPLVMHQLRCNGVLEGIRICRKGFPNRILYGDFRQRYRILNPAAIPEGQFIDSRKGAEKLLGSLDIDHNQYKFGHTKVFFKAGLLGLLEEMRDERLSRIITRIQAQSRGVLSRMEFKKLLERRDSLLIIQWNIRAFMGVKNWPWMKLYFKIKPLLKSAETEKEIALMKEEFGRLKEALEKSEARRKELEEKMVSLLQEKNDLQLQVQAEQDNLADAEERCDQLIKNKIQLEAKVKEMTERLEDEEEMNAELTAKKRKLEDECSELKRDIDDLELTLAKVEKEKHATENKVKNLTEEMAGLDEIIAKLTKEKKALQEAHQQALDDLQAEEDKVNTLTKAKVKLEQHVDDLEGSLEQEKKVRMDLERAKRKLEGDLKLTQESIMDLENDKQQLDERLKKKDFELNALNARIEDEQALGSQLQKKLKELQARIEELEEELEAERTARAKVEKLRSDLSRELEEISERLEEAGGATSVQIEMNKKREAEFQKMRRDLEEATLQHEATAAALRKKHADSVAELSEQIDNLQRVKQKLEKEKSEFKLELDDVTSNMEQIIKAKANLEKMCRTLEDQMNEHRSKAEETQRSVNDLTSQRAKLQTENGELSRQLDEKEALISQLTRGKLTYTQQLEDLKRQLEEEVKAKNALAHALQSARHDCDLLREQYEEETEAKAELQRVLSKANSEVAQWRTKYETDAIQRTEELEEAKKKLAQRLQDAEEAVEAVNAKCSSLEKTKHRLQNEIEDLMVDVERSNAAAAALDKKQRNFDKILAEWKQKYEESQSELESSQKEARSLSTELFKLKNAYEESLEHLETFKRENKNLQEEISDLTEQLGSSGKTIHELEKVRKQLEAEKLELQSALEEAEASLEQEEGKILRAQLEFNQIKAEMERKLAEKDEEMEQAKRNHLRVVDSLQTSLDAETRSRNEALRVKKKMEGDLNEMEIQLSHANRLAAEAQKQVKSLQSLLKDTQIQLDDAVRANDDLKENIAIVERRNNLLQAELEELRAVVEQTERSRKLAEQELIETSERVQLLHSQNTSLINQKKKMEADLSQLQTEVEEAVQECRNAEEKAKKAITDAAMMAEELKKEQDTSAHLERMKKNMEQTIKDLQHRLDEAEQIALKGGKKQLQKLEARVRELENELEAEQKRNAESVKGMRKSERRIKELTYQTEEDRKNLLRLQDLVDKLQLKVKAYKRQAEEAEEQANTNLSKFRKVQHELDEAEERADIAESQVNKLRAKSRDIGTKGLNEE
bovine cardiac myosin, sequence (P85100 whole entry partner): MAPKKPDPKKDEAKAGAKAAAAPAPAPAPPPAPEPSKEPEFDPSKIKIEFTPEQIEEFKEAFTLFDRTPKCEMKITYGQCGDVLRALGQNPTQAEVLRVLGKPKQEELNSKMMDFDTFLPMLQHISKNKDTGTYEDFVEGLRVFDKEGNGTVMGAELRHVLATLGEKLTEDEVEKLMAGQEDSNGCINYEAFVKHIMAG
bovine cardiac myosin, sequence (Q3SZE5 whole entry partner): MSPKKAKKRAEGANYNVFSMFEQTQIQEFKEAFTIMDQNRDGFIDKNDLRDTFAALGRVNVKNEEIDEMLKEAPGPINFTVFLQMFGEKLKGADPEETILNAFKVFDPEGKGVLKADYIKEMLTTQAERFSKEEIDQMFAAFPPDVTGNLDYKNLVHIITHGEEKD

Cc1cc(S(=O)(=O)C(F)(F)C2CCN(C(=O)Nc3ccnnc3)CC2)n(C2CC2)n1 [Compound 90, 4-(((1-cyclopropyl-3-methyl-1H-pyrazol-5-yl)sulfonyl)difluoromethyl)-N-(pyridazin-4-yl)piperidine-1-carboxamide]
Myosin Activation (AC20): + (+ represents myosin activation value AC20 > 5 μM)

CC(C)(C1(F)CCN(C(=O)Nc2ccnnc2)CC1)S(=O)(=O)c1cccc(F)c1 [Compound 30, 4-Fluoro-4-(2-((3-fluorophenyl)sulfonyl)propan-2-yl)-N-(pyridazin-4-yl)piperidine-1-carboxamide]
Myosin Activation (AC20): ++ (++ represents myosin activation value AC20 from 2 μM-5 μM)

Cn1nc(C(F)(F)F)cc1S(=O)(=O)C(C)(C)C1CCN(C(=O)Nc2ccc(F)nc2)CC1 [Compound 123, N-(6-fluoropyridin-3-yl)-4-(2-((1-methyl-3-(trifluoromethyl)-1H-pyrazol-5-yl)sulfonyl)propan-2-yl)piperidine-1-carboxamide]
Myosin Activation (AC20): ++ (++ represents myosin activation value AC20 from 2 μM-5 μM)

Cn1nc(C(F)F)cc1S(=O)(=O)C(C)(C)C1CCN(C(=O)Nc2ccc(F)nc2)CC1 [Compound 106, 4-(2-((3-(difluoromethyl)-1-methyl-1H-pyrazol-5-yl)sulfonyl)propan-2-yl)-N-(6-fluoropyridin-3-yl)piperidine-1-carboxamide]
Myosin Activation (AC20): ++ (++ represents myosin activation value AC20 from 2 μM-5 μM)

O=C(Nc1ccns1)N1CCC(C2(S(=O)(=O)c3ccc(OC(F)(F)F)cc3)CC2)CC1 [Compound 207, N-(isothiazol-5-yl)-4-(1-((4-(trifluoromethoxy)phenyl)sulfonyl)cyclopropyl)piperidine-1-carboxamide]
Myosin Activation (AC20): +++ (+++ represents myosin activation value AC20 < 2 μM)

C[C@](F)(C1CCN(C(=O)Nc2ccon2)CC1)S(=O)(=O)c1ccc(C(F)(F)F)nc1 [Compound 310, (R)-4-(1-fluoro-1-((6-(trifluoromethyl)pyridin-3-yl)sulfonyl)ethyl)-N-(isoxazol-3-yl)piperidine-1-carboxamide]
Myosin Activation (AC20): ++ (++ represents myosin activation value AC20 from 2 μM-5 μM)

CC(F)(C1CCN(C(=O)Nc2ccnnc2)CC1)S(=O)(=O)c1ccc(C(F)(F)F)cc1 (stereo not shown) [Compound 266, 4-(1-fluoro-1-((4-(trifluoromethyl)phenyl)sulfonyl)ethyl)-N-(pyridazin-4-yl)piperidine-1-carboxamide]
Myosin Activation (AC20): ++ (++ represents myosin activation value AC20 from 2 μM-5 μM)

Cc1ccc(NC(=O)N2CCC([C@](C)(F)S(=O)(=O)c3cn(C)nc3C(F)F)CC2)cn1 [Compound 260, (R)-4-(1-((3-(difluoromethyl)-1-methyl-1H-pyrazol-4-yl)sulfonyl)-1-fluoroethyl)-N-(6-methylpyridin-3-yl)piperidine-1-carboxamide]
Myosin Activation (AC20): ++ (++ represents myosin activation value AC20 from 2 μM-5 μM)

CC(F)(C1CCN(C(=O)Nc2ccnnc2)CC1)S(=O)(=O)c1ccccc1C(F)(F)F (stereo not shown) [Compound 57, 4-(1-fluoro-1-((2-(trifluoromethyl)phenyl)sulfonyl)ethyl)-N-(pyridazin-4-yl)piperidine-1-carboxamide]
Myosin Activation (AC20): ++ (++ represents myosin activation value AC20 from 2 μM-5 μM)

C[C@](F)(C1CCN(C(=O)Nc2cnc3c(c2)CNC3=O)CC1)S(=O)(=O)c1cccc(F)c1 [Compound 301, (R)-4-(1-fluoro-1-((3-fluorophenyl)sulfonyl)ethyl)-N-(7-oxo-6,7-dihydro-5H-pyrrolo[3,4-b]pyridin-3-yl)piperidine-1-carboxamide]
Myosin Activation (AC20): ++ (++ represents myosin activation value AC20 from 2 μM-5 μM)

Cn1nc(Cl)cc1S(=O)(=O)C(C)(C)C1CCN(C(=O)Nc2ccc(F)nc2)CC1 [Compound 114, 4-(2-((3-chloro-1-methyl-1H-pyrazol-5-yl)sulfonyl)propan-2-yl)-N-(6-fluoropyridin-3-yl)piperidine-1-carboxamide]
Myosin Activation (AC20): +++ (+++ represents myosin activation value AC20 < 2 μM)

CC(F)(C1CCN(C(=O)Nc2ccnnc2)CC1)S(=O)(=O)c1cc(F)cc(F)c1 (stereo not shown) [Compound 275, 4-(1-((3,5-difluorophenyl)sulfonyl)-1-fluoroethyl)-N-(pyridazin-4-yl)piperidine-1-carboxamide]
Myosin Activation (AC20): +++ (+++ represents myosin activation value AC20 < 2 μM)

Cn1cc(S(=O)(=O)C(F)(F)C2CCN(C(=O)Nc3ccnnc3)CC2)c(C(F)F)n1 [Compound 83, 4-(((3-(difluoromethyl)-1-methyl-1H-pyrazol-4-yl)sulfonyl)difluoromethyl)-N-(pyridazin-4-yl)piperidine-1-carboxamide]
Myosin Activation (AC20): ++ (++ represents myosin activation value AC20 from 2 μM-5 μM)

CCn1nccc1S(=O)(=O)C(C)(C)C1CCN(C(=O)Nc2cnns2)CC1 [Compound 183, 4-(2-((1-ethyl-1H-pyrazol-5-yl)sulfonyl)propan-2-yl)-N-(1,2,3-thiadiazol-5-yl)piperidine-1-carboxamide]
Myosin Activation (AC20): ++ (++ represents myosin activation value AC20 from 2 μM-5 μM)

Cc1ccccc1S(=O)(=O)C(C)(F)C1CCN(C(=O)Nc2ccnnc2)CC1 (stereo not shown) [Compound 53, 4-(1-fluoro-1-(o-tolylsulfonyl)ethyl)-N-(pyridazin-4-yl)piperidine-1-carboxamide]
Myosin Activation (AC20): +++ (+++ represents myosin activation value AC20 < 2 μM)

Cn1nc(C(F)(F)F)cc1S(=O)(=O)[C@](C)(F)C1CCN(C(=O)Nc2ccon2)CC1 [Compound 229]
Myosin Activation (AC20): + (+ represents myosin activation value AC20 > 5 μM)

CC(C)(C1CCN(C(=O)Nc2ccc(Cl)nc2)CC1)S(=O)(=O)c1cccc(F)c1 [Compound 159, N-(6-chloropyridin-3-yl)-4-(2-((3-fluorophenyl)sulfonyl)propan-2-yl)piperidine-1-carboxamide]
Myosin Activation (AC20): ++ (++ represents myosin activation value AC20 from 2 μM-5 μM)

Cn1nc(C(F)(F)F)cc1S(=O)(=O)C(C)(F)C1CCN(C(=O)Nc2ccc(F)nc2)CC1 (stereo not shown) [Compound 252, 4-(1-fluoro-1-((1-methyl-3-(trifluoromethyl)-1H-pyrazol-5-yl)sulfonyl)ethyl)-N-(6-fluoropyridin-3-yl)piperidine-1-carboxamide]
Myosin Activation (AC20): ++ (++ represents myosin activation value AC20 from 2 μM-5 μM)

Cn1cc(S(=O)(=O)[C@@](C)(F)C2CCN(C(=O)Nc3cn[nH]c3)CC2)c(C(F)F)n1 [Compound 289, (R)-4-(1-((3-(difluoromethyl)-1-methyl-1H-pyrazol-4-yl)sulfonyl)-1-fluoroethyl)-N-(1H-pyrazol-4-yl)piperidine-1-carboxamide]
Myosin Activation (AC20): ++ (++ represents myosin activation value AC20 from 2 μM-5 μM)

CC(F)(F)C(C)(C1CCN(C(=O)Nc2ccnnc2)CC1)S(=O)(=O)c1cccc(F)c1 (stereo not shown) [Compound 178, 4-(3,3-difluoro-2-((3-fluorophenyl)sulfonyl)butan-2-yl)-N-(pyridazin-4-yl)piperidine-1-carboxamide]
Myosin Activation (AC20): +++ (+++ represents myosin activation value AC20 < 2 μM)

Cn1nc(C(F)(F)F)cc1S(=O)(=O)[C@@](C)(F)C1CCN(C(=O)Nc2ccnc(F)c2)CC1 [Compound 296, (R)-4-(1-fluoro-1-((1-methyl-3-(trifluoromethyl)-1H-pyrazol-5-yl)sulfonyl)ethyl)-N-(2-fluoropyridin-4-yl)piperidine-1-carboxamide]
Myosin Activation (AC20): +++ (+++ represents myosin activation value AC20 < 2 μM)

CC(C)(C1CCN(C(=O)Nc2ccc(F)nc2)CC1)S(=O)(=O)c1ccc(C#N)cc1 [Compound 109, 4-(2-((4-cyanophenyl)sulfonyl)propan-2-yl)-N-(6-fluoropyridin-3-yl)piperidine-1-carboxamide]
Myosin Activation (AC20): + (+ represents myosin activation value AC20 > 5 μM)

CN(C)c1ncccc1S(=O)(=O)C(F)(F)C1CCN(C(=O)Nc2ccnnc2)CC1 [Compound 96, 4-(((2-(dimethylamino)pyridin-3-yl)sulfonyl)difluoromethyl)-N-(pyridazin-4-yl)piperidine-1-carboxamide]
Myosin Activation (AC20): + (+ represents myosin activation value AC20 > 5 μM)

Cc1ccc(S(=O)(=O)CC2CCN(C(=O)Nc3ccncc3)CC2)cc1 [Compound 38, N-(pyridin-4-yl)-4-(tosylmethyl)piperidine-1-carboxamide]
Myosin Activation (AC20): + (+ represents myosin activation value AC20 > 5 μM)

Cn1nccc1S(=O)(=O)C(C)(C)C1CCN(C(=O)Nc2ccon2)CC1 [Compound 128, N-(isoxazol-3-yl)-4-(2-((1-methyl-1H-pyrazol-5-yl)sulfonyl)propan-2-yl)piperidine-1-carboxamide]
Myosin Activation (AC20): ++ (++ represents myosin activation value AC20 from 2 μM-5 μM)

O=C(Nc1ccnnc1)N1CCC(C(F)(F)S(=O)(=O)c2ccc(OC(F)(F)F)cc2)CC1 [Compound 48, 4-(difluoro((4-(trifluoromethoxy)phenyl)sulfonyl)methyl)-N-(pyridazin-4-yl)piperidine-1-carboxamide]
Myosin Activation (AC20): ++ (++ represents myosin activation value AC20 from 2 μM-5 μM)

Cn1cc(S(=O)(=O)C(C)(C)C2CCN(C(=O)Nc3ccncc3)CC2)cn1 [Compound 198, 4-(2-((1-methyl-1H-pyrazol-4-yl)sulfonyl)propan-2-yl)-N-(pyridin-4-yl)piperidine-1-carboxamide]
Myosin Activation (AC20): + (+ represents myosin activation value AC20 > 5 μM)

Cn1cc(S(=O)(=O)C(C)(C)C2CCN(C(=O)Nc3cn[nH]c3)CC2)c(C(F)(F)F)n1 [Compound 110, 4-(2-((1-methyl-3-(trifluoromethyl)-1H-pyrazol-4-yl)sulfonyl)propan-2-yl)-N-(1H-pyrazol-4-yl)piperidine-1-carboxamide]
Myosin Activation (AC20): ++ (++ represents myosin activation value AC20 from 2 μM-5 μM)

Reference: patent US11123337B2, “4-methylsulfonyl-substituted piperidine urea compounds” (MYOKARDIA, INC., priority 2015, dated 2021)
